# Measurements reported in ChEMBL document CHEMBL1154053, “The structure-based design, synthesis, and biological evaluation of DNA-binding amide linked bisintercalating bisanthrapyrazole anticancer compounds” (Bioorg Med Chem, 2009).
# Tests used:
# Calf thymus DNA = experiment: Binding affinity to calf thymus DNA assessed as change in melting temperature at 2 uM by thermal denaturation assay; type: nucleic-acid assay; details: Bos taurus
# K562 [1] = experiment: Growth inhibition of human K562 cells by MTS method; type: functional, cell-based
# [2] = Growth inhibition of human K/VP.5 cells by MTS method; type: functional
# K562 [3] = experiment: Resistance factor, ratio of IC50 for human K/VP.5 cells to IC50 for human K562 cells; type: functional
# [4] = biological target: DNA topoisomerase 2-alpha (Homo sapiens, UniProt P11388); experiment: Inhibition of decatenation activity of human topoisomerase 2alpha
# Sequence of DNA topoisomerase 2-alpha (P11388 whole entry): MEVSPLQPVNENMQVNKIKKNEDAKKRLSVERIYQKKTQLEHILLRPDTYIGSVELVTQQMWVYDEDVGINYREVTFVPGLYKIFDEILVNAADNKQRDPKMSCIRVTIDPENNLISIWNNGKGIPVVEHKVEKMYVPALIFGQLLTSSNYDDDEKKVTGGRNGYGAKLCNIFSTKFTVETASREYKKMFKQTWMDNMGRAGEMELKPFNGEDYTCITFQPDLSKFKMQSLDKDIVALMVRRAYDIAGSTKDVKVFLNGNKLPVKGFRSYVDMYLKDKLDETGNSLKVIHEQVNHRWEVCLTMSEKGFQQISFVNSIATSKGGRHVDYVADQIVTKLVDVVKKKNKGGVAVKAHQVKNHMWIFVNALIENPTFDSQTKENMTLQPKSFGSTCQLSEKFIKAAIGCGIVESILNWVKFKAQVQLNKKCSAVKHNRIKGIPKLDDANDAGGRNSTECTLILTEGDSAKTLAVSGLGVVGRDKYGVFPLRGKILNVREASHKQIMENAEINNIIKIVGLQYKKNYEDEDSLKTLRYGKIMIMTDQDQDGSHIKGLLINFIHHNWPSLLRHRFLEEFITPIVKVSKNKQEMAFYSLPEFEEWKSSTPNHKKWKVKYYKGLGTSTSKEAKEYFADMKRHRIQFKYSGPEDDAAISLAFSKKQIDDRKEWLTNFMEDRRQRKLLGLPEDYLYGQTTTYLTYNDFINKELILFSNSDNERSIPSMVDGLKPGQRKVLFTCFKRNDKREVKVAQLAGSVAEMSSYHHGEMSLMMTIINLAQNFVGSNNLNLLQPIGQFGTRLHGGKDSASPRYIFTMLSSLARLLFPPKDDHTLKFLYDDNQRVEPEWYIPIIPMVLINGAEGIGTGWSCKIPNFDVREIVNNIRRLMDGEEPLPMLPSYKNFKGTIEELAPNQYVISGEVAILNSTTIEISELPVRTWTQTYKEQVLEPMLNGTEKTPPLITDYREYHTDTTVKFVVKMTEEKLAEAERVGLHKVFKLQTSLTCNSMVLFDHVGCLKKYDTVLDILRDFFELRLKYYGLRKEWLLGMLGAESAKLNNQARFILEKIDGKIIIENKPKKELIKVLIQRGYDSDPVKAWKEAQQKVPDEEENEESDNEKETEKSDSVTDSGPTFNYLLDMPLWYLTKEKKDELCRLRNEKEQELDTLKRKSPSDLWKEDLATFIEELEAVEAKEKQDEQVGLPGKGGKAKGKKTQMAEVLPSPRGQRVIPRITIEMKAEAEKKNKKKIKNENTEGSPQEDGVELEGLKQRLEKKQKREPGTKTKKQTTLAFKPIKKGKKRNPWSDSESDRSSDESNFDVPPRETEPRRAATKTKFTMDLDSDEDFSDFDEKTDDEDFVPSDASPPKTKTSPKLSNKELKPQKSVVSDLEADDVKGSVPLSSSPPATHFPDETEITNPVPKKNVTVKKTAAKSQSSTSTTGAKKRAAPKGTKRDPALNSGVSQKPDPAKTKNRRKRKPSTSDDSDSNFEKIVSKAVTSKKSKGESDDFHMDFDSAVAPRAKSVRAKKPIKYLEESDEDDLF
Structure (SMILES),ΔTm (Calf thymus DNA),IC50 (K562 [1]),IC50 [2],Ratio IC50 (K562 [3]),IC50 [4]
CN(CCNC(=O)CCC(=O)NCCN(C)CCn1nc2c3c(cccc31)C(=O)c1c(Cl)cccc1-2)CCn1nc2c3c(cccc31)C(=O)c1c(Cl)cccc1-2,21.8 °C,3.5 µM,1.6 µM,0.44,7 µM
CN(CCN=[N+]=[N-])CCn1nc2c3c(cccc31)C(=O)c1c(Cl)cccc1-2,1.1 °C,3.6 µM,,,25 µM
CN(CCNC(=O)CCCCCC(=O)NCCN(C)CCn1nc2c3c(cccc31)C(=O)c1c(Cl)cccc1-2)CCn1nc2c3c(cccc31)C(=O)c1c(Cl)cccc1-2,4.8 °C,4.6 µM,2.5 µM,0.55,22 µM
CN(CCNC(=O)CC(=O)NCCN(C)CCn1nc2c3c(cccc31)C(=O)c1c(Cl)cccc1-2)CCn1nc2c3c(cccc31)C(=O)c1c(Cl)cccc1-2,9.6 °C,2.6 µM,2 µM,0.77,42 µM
CN(CCO)CCn1nc2c3c(cccc31)C(=O)c1c(Cl)cccc1-2,5.4 °C,3.1 µM,1.9 µM,0.63,10 µM
CN(CCNC(=O)CCCCC(=O)NCCN(C)CCn1nc2c3c(cccc31)C(=O)c1c(Cl)cccc1-2)CCn1nc2c3c(cccc31)C(=O)c1c(Cl)cccc1-2,6.8 °C,6.7 µM,3.3 µM,0.48,48 µM
COc1cccc2c1C(=O)c1c(O)c3c(c(O)c1C2=O)C[C@@](O)(C(=O)CO)C[C@@H]3O[C@H]1C[C@H](N)[C@H](O)[C@H](C)O1,17.8 °C,,,,
CN(CCNC(=O)CCCC(=O)NCCN(C)CCn1nc2c3c(cccc31)C(=O)c1c(Cl)cccc1-2)CCn1nc2c3c(cccc31)C(=O)c1c(Cl)cccc1-2,17.8 °C,5.7 µM,2.3 µM,0.39,25 µM
CN(CCN)CCn1nc2c3c(cccc31)C(=O)c1c(Cl)cccc1-2,10.2 °C,3.6 µM,1.5 µM,0.43,18 µM
